In assay [1] the test system is PR Ser294 phosphorylation. Nature of the assay: PR Ser294 phosphorylation in T47D cells (Western blotting, immunofluorescence). It counts as cell-based, human. The conditions noted are these: T47D cells expressing WT or KR PR; for PR Ser294 phosphorylation, ligand alone: 1 hour; for PR Ser294 phosphorylation in the presence of progesterone (co-treatment): progesterone plus antiprogestin. The method, then:
T47D human breast cancer cell lines engineered to stably express PR variants (null, WT, K388R, or S294A) were previously described (Knutson et al. Breast Cancer Res 2012, 14:R9). T47D cells were maintained in complete minimal essential medium (cMEM) supplemented with 5% fetal bovine serum (FBS), 1% non-essential amino acids (NEAA), 1% penicillin/streptomycin, 6 ng/ml insulin (CellGro, Manassas, Va., USA, catalog #10-010-CV). T47D cells described above were engineered to also stably express RUNX2 shRNAs via the pLKO.1 knockdown expression vector system, which required 25 μg/ml puromycin for the vector. In various experiments, cells or explants were treated with E2, ICI 182 780, R5020, mifepristone, aglepristone, or onapristone (Arno Therapeutics, Inc., Flemington, N.J.).
Immunocytochemistry was performed on T47D cells expressing PR variants to measure total- and phospho-Ser294 PR levels. 500,000 cells were grown on coverslips in 6-well plates, starved in IMEM plus 5% charcoal stripped FBS, treated, and fixed with 4% paraformaldehyde for 20 min. The cells were permeabilized with 0.3% Triton-X100 before incubating with total-PR (clone Ab8, ThermoFisher Scientific, Waltham, Mass.) or custom phospho-Ser294-PR (clone 8508) antibodies. Cells were incubated with fluorescent secondary antibodies (Alexa Fluor 488) and DAPI mounting medium (Life Technologies, ThermoFisher Scientific, Waltham, Mass.) before visualizing on a Zeiss microscope with A4 and L5 filter cubes. Immunoblotting was performed as previously described (Daniel et al. Mol Endocrinol 2007, 21:2890-2906).
In addition, extensive luminal breast cancer heterogeneity may limit the ability to observe a subset of PR-driven breast cancers without patient selection. In this case, PR target gene expression may provide an accurate means of predicting which breast tumors are likely to be influenced by PR-driven biological pathways enacted by active phospho-Ser294 PRs. To probe changes in PR target gene expression in the presence or absence of commonly used PR ligands (R5020, RU486), including diverse antiprogestins (aglepristone, onapristone) currently in development for clinical use, the well characterized model system of T47D breast cancer cells, stably expressing either unmodified wild-type (WT) PR-B or a transcriptionally hyperactive form of deSUMOylated K388R PR-B (KR; this receptor faithfully mimics phosphorylated PR-B with regard to target gene selection) were used (Knutson et al. Pharmacology & therapeutics 2014, 142:114-125; Daniel et al. Mol Endocrinol 2007, 21:2890-2906). Whether the antiprogestins mifepristone (also called RU486), aglepristone, or onapristone alter PR Ser294 phosphorylation were tested in these T47D breast cancer models. Cells were treated for 1 hour with vehicle, progesterone, mifepristone, aglepristone, or onapristone and whole cell lysates were processed for Western blotting or immunofluorescence (IF) analysis (FIG. 4A, B). […] Greater loss of total KR PR protein was also apparent in the presence of progesterone and selected antiprogestins relative to liganded WT PR, consistent with increased turnover of deSUMOylated active receptors relative to intact WT PRs.
For orientation: In western blotting, separated proteins are transferred to a membrane and probed.

The test system of assay [2] is PR target gene expression. Kind of assay: Global gene expression analysis (Illumina HT-12v4) in T47D cells expressing WT or K388R PR-B. It counts as cell-based, human. The note with it: for regulation of PR target genes in cells expressing KR PR: T47D KR PR. The method, then: For genome-wide microarray expression analysis, T47D cells expressing pIRES-neo3 empty vector, WT PR, or K388R PR were serum starved in modified improved minimum essential media (IMEM) (Gibco, ThermoFisher Scientific, Waltham, Mass.) for one day before treatment. Eight groups were treated with vehicle control, progesterone (10^−8 M), mifepristone (10^−7 M), aglepristone (10^−7 M), onapristone (10^−7 M), or combined treatment of progesterone+mifepristone, progesterone+aglepristone, or progesterone+onapristone for six hours before RNA extraction using a RNeasy kit (QIAgen). DNase I treated (QIAgen) RNA samples from triplicate experiments were prepared for expression analysis using the Illumina HT-12v4 bead chip platform according to standard protocols. Raw data from agonist-treated cells (progesterone or R5020) collected from two identically performed independent experiments (from this study and a previous study: GSE34148 (Knutson et al. Breast Cancer Res 2012, 14:R95)) was combined, normalized, and batch-corrected to ensure that gene expression values were informative across samples from separate experiments. Data were analyzed within multiple common R (R Core Team: R: A language and environment for statistical computing. R Foundation for Statistical Computing, Vienna, Austria 2015, [available on the world wide web at r-project.org/]) and Bioconductor (Gentleman et al. Genome Biol 2004, 5:R80) packages. Raw intensities were log 2 transformed and quantile normalized using lumi (Du et al. Bioinformatics 2008, 24:1547-1548), batch corrected using sva (Leek et al.: sva: Surrogate Variable Analysis. R package version 3.18.0.), and multiple probes for a single gene were collapsed using genefilter (Gentleman et al.: genefilter: genefilter: methods for filtering genes from high-throughput experiments. R package version 1.52.1). Differentially expressed genes (pairwise comparisons between all eight groups) were analyzed in limma (Smyth: Limma: linear models for microarray data. In: Bioinformatics and computational biology solutions using R and Bioconductor. edn.: Springer; 2005: 397-420), where empirical Bayes was used to better estimate the variance of the genes. Biological comparisons (for example, R5020/vehicle) were presented as log 2 fold change including the Benjamini and Hochberg (BH) adjusted P value (Benjamini et al. J Roy Stat Soc B Met 1995, 57:289-300) to account for multiple hypothesis testing. Expression data is available in the GEO database, accession: GSE94363.
Normalized gene expression data were filtered to isolate only high variance genes using the bioconductor package genefilter (Gentleman et al.: genefilter: genefilter: methods for filtering genes from high-throughput experiments. In., R package version 1.50.0 edn: R package version 1.50.0) using interquartile range cutoff value of 0.85. Non-negative matrix factorization (NMF) was performed within R using the NMF package version 0.20.5 (Gaujoux et al. BMC bioinformatics 2010, 11:367) where matrix factors were rank (2-10) and algorithm (brunet or snmf/r) optimized using the nmf function with parameters nrun=30 and seed=123456. […] Clustering and plots were performed in R (NMF package, a heat map function) using Euclidean distance and UPGMA (average) linkage.
PR ligand-mediated promoter selectivity remains understudied, especially in the context of antiprogestins and posttranslationally modified PR species. […]

The source of these data is patent US10942183B2, “Methods of detecting progesterone receptor and of detecting an expression level” (REGENTS OF THE UNIVERSITY OF MINNESOTA, priority 2017, dated 2021).

With `CN(C)c1ccc([C@H]2C[C@]3(C)[C@@H](CC[C@]3(O)CCCO)[C@@H]3CCC4=CC(=O)CCC4=C32)cc1` [onapristone], in assay [1], the “PR Ser294 phosphorylation, ligand alone” value is given as “had no effect on PR Ser294 phosphorylation” and the “PR Ser294 phosphorylation in the presence of progesterone (co-treatment)” value is given as “blocked Ser294 phosphorylation in the presence of progesterone”. Further, the “regulation of PR target genes in cells expressing KR PR” value in assay [2] (antiprogestin 10^-7 M, 6 hours) is “does not substantially regulate PR target genes in either cell line”. Also, the “regulation of PR target genes in cells expressing WT PR” value in assay [2] (T47D WT PR, antiprogestin 10^-7 M, 6 hours) is listed as “does not substantially regulate PR target genes in either cell line”. In addition, in assay [2] (T47D WT or KR PR, compared with PR-null cells), the “PR transcriptional activity (hierarchical clustering of regulated genes)” value is recorded as “effectively inhibited PR (either WT or KR) transcriptional activity comparable to the level found in PR-null (control) cells”.
With `CC(=O)[C@H]1CC[C@H]2[C@@H]3CCC4=CC(=O)CC[C@]4(C)[C@H]3CC[C@]12C` [progesterone], the “PR Ser294 phosphorylation, ligand alone” value in assay [1] is “stimulated PR Ser294 phosphorylation”.
For `CC#C[C@]1(O)CC[C@H]2[C@@H]3CCC4=CC(=O)CCC4=C3[C@@H](c3ccc(N(C)C)cc3)C[C@@]21C` [mifepristone], in assay [1], the “PR Ser294 phosphorylation, ligand alone” value is recorded as “stimulated robust PR Ser294 phosphorylation” and the “PR Ser294 phosphorylation in the presence of progesterone (co-treatment)” value was “also induced Ser294 phosphorylation”. Also, the “regulation of PR target genes in cells expressing KR PR” value in assay [2] (antiprogestin 10^-7 M, 6 hours) is “substantially regulate multiple genes in cells expressing KR PR”.
